Columns and labels:
[1] = Plasma stability assay, mouse plasma; type: in vitro ADME; settings: 37°C
Experimental: (§1) In order to determine the stability of selected compounds of the invention in human and mouse plasma, a plasma stability assay was carried out. Such plasma stability assay measures degradation of compounds of the present invention in blood plasma. This is an important characteristic of a compound as compounds, with the exception of pro-drugs, which rapidly degrade in plasma, generally show poor in vivo efficacy. […] The stability is sufficient for the diagnostic, therapeutic and theragnostic use of these compounds according to the present invention.
(§2) The plasma stability samples were prepared by spiking 50 µl plasma aliquots (all sodium citrate 3.8%) with 1 µl of a 0.5 mM compound stock solution in DMSO. After vortexing, the samples were incubated in a Thermomixer at 37°C for 4 or 6 hours. After incubation the samples were stored on ice until further treatment. All samples were prepared in duplicates.
A suitable internal standard was added to each sample (1 µl of a 0.5 mM stock solution in DMSO). Protein precipitation was performed using two different methods depending on the compound conditions as indicated in Table 8. • A) 250 µl of acetonitrile containing 1% trifluoroacetic acid was added. […] After incubation at room temperature for 30 min the precipitate was separated by centrifugation. To 100 µl of the supernatant 10 µl of 1% formic acid was added followed by further incubation at 60°C for 10 min to complete the formation of the zinc chelate, if the compound contains a free DOTA moiety.
The determination of the analyte in the clean sample solutions was performed on an Agilent 1290 UHPLC system coupled to an Agilent 6530 Q-TOF mass spectrometer. The chromatographic separation was carried out on a Phenomenex BioZen XB-C18 HPLC column (50 x 2 mm, 1.7 µm particle size) with gradient elution using a mixture of 0.1% formic acid in water as eluent A and acetonitrile as eluent B (2% B to 41% in 7 min, 800 µl/min, 40°C). Mass spectrometric detection was performed in positive ion ESI mode by scanning the mass range from m/z 50 to 3000 with a sampling rate of 2 / sec.
From the mass spectrometric raw data the ion currents for the double or triple charged monoisotopic signal was extracted for both, the compound and the internal standard.
(§3) Quantitation was performed by external matrix calibration with internal standard using the integrated analyte signals.
The result is stated as "% intact compound remaining after 4 h or 6 h" and means that from the amount of material at the start of the experiment the stated percentage is detected as unchanged material at the end of the experiment by LC-MS quantification. Since all compounds are more than 50% intact after at least 4 h they are considered as stable enough for diagnostic and therapeutic applications. Table 8: Results of the plasma stability assay

HEK-FAP cells = target: T1, HEK-FAP cells (Homo sapiens, UniProt Q12884); test: LigandTracer assay with 111In-labeled compounds; type: binding; settings: 111In-labeled compound; for kon: association rate, read-out: ka
T1 construct: expressed in transfected cells; host or cells: HEK293
T1 sequence (Q12884 1-760): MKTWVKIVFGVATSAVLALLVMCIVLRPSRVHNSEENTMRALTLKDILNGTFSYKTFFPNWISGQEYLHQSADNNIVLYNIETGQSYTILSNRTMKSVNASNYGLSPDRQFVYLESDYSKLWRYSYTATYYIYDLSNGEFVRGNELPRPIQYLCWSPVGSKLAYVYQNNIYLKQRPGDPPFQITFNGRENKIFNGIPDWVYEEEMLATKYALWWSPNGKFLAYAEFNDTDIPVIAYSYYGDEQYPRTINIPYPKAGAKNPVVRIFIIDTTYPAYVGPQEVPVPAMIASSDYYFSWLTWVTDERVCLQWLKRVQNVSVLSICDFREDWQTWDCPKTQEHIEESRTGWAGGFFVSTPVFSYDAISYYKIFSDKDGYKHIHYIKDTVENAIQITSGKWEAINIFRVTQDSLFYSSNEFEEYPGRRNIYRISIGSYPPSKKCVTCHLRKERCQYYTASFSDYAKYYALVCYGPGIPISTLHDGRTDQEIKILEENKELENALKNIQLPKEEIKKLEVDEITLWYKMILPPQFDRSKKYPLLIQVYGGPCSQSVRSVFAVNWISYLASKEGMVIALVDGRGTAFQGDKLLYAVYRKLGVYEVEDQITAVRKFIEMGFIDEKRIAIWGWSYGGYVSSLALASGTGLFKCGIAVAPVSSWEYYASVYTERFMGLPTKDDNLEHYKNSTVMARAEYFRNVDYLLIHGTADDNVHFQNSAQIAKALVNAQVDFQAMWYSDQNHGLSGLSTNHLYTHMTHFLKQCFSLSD
Experimental: HEK293 cells (human embryonic kidney cells) were engineered to express the human FAP. […] Cell concentrations were adjusted to 3 x 10^5 mL^-1, and 3.000 µL of the suspension was dispensed into a poly-lysine-coated, clear cell dish (10cm). Approximately 24 hours after re-seeding, the medium was replaced by assay medium (Ham's medium with 20 mM HEPES) containing 1 % FCS. The dish was placed in the LigandTracer® device and a baseline measurement was obtained using the LigandTracer® Control software (version 2.4). […] To determine the dissociation rate (kd) the cells were washed and subsequently incubated with fresh assay medium for several hours. […] Table 14 Results of the LigandTracer® assay

[2] = Plasma stability assay, human plasma; type: in vitro ADME; settings: 37°C, 6 h
Experimental: as §1, §2
A suitable internal standard was added to each sample (1 µl of a 0.5 mM stock solution in DMSO). […]
as §3
The result is stated as "% intact compound remaining after 4 h or 6 h" and means that from the amount of material at the start of the experiment the stated percentage is detected as unchanged material at the end of the experiment by LC-MS quantification. […]

HL (HEK-FAP cells)	pKD (HEK-FAP cells)	SMILES	% intact compound remaining after incubation ([1]; 4 h)	also measured
1477 ± 2013 min	9.8 ± 0.7	O=C(O)CN1CCN(CC(=O)O)CCN(CC(=O)N2CCN(CCNC(=O)c3ccc(-c4ccc5nccc(C(=O)NCC(=O)N6CCC[C@H]6C(=O)c6nc7ccccc7o6)c5c4)cc3)CC2)CCN(CC(=O)O)CC1 [Compound 3BP-4663]		% intact compound remaining after incubation ([1]; 6 h): 92% (6 h); kon (HEK-FAP cells): 150000 M⁻¹ s⁻¹; % intact compound remaining after incubation [2]: 89% (6 h)
3946 ± 1189 min	10.3 ± 0.1	O=C(O)CN1CCN(CC(=O)O)CCN(CC(=O)N2CCN(CCNC(=O)c3cccc(-c4ccc5c(C(=O)NCC(=O)N6CCC[C@H]6C(=O)c6nc7ccccc7o6)ccnc5c4)c3)CC2)CCN(CC(=O)O)CC1 [Compound 3BP-4694]		% intact compound remaining after incubation ([1]; 6 h): 90% (6 h); kon (HEK-FAP cells): 57000 M⁻¹ s⁻¹
		CS(=O)(=O)c1ccc(-c2ccc3c(C(=O)NCC(=O)N4CCC[C@H]4C#N)ccnc3c2)cc1 [Compound 3BP-3128]	> 95% (4 h)	
		CS(=O)(=O)c1cccc(-c2ccc3nccc(C(=O)NCC(=O)N4CC(F)(F)C[C@H]4C#N)c3c2)c1 [Compound 3BP-3126]	78% (4 h)	
1030 ± 1439 min	9.3 ± 0.7	O=C(O)CN1CCN(CC(=O)O)CCN(CC(=O)N2CCN(CCNC(=O)c3cccc(-c4ccc5nccc(C(=O)NCC(=O)N6CCC[C@H]6C(=O)c6nc7ccccc7o6)c5c4)c3)CC2)CCN(CC(=O)O)CC1 [Compound 3BP-4664]		kon (HEK-FAP cells): 160000 M⁻¹ s⁻¹
276 ± 142 min		N#C[C@@H]1CC(F)(F)CN1C(=O)CNC(=O)c1ccnc2ccc(OCCCN3CCN(C(=O)CN4CCN(CC(=O)O)CCN(CC(=O)O)CCN(CC(=O)O)CC4)CC3)cc12 [Compound 3BP-2929, reference compound]		
		O=C(NCC(=O)N1CCC[C@H]1C(=O)c1nc2ccccc2o1)c1ccnc2c1=CCCC=2 [Compound 3BP-3205]	> 95% (4 h)	
1798 ± 24 min	10.4 ± 0.0	CN(CCCN1CCN(C(=O)CN2CCN(CC(=O)O)CCN(CC(O)O)CCN(CC(=O)O)CC2)CC1)c1ccc2nccc(C(=O)NCC(=O)N3CC(F)(F)C[C@H]3C#N)c2c1 [Compound 3BP-4200, reference compound]		
38 ± 4 min	8.5 ± 0.1	O=C(O)CN1CCN(CC(=O)O)CCN(CC(=O)N2CCN(CCNC(=O)c3ccc(-c4ccc5nccc(C(=O)NCC(=O)N6C[C@@H](F)C[C@H]6C(=O)c6nc7ccccc7o6)c5c4)cc3)CC2)CCN(CC(=O)O)CC1 [Compound 3BP-4810]		
		CS(=O)(=O)c1cccc(-c2ccc3c(C(=O)NCC(=O)N4CC(F)(F)C[C@H]4C#N)ccnc3c2)c1 [Compound 3BP-3127]	> 95% (4 h)	
		O=C(NCC(=O)N1CCC[C@H]1C(=O)c1ncco1)c1ccnc2ccccc12 [Compound 3BP-3208]	92% (4 h)	
27 ± 12 min	8.3 ± 0.2	O=C(O)CN1CCN(CC(=O)O)CCN(CC(=O)N2CCN(CCNC(=O)c3ccc(-c4ccc5nccc(C(=O)NCC(=O)N6CCC[C@H]6C(=O)c6nc7ccccc7o6)c5c4)cn3)CC2)CCN(CC(=O)O)CC1 [Compound 3BP-4811]		

SMILES	HL (HEK-FAP cells)	pKD (HEK-FAP cells)	% intact compound remaining after incubation ([1]; 4 h)	also measured
O=C(O)CN1CCN(CC(=O)O)CCN(CC(=O)NCCCS(=O)(=O)c2ccc(-c3ccc4nccc(C(=O)NCC(=O)N5CCC[C@H]5C(=O)c5nc6ccccc6o5)c4c3)cc2)CCN(CC(=O)O)CC1 [Compound 3BP-3581, (S)-2,2',2"-(10-(2-(3-(4-(4-(2-(2-(benzo[d]oxazole-2-carbonyl)pyrrolidin-1-yl)-2-oxoethylcarbamoyl)quinolin-6-yl)phenylsulfonyl)propylamino)-2-oxoethyl)-1,4,7,10-tetraazacyclododecane-1,4,7-triyl)triacetic acid]	345 ± 218 min			
O=C(O)CN1CCN(CC(=O)O)CCN(CC(=O)N2CCN(CCCOc3ccc4nccc(C(=O)NCC(=O)N5C[C@@H](F)C[C@H]5C(=O)c5nc6ccccc6o5)c4c3)CC2)CCN(CC(=O)O)CC1 [Compound 3BP-4809]	18 ± 1 min	8.2 ± 0.1		

— patent publication EP4122499A1, “FIBROBLAST ACTIVATION PROTEIN INHIBITORS AND USE THEREOF” (3B Pharmaceuticals GmbH, priority 2021, dated 2023)
